# Values of other authors, collected in patent US20160220684A1, “COMPOSITION AND METHOD FOR RELIEVING PAIN AND INFLAMMATION, TREATMENT OF ERECTILE DYSFUNCTION, AND TREATMENT OF ACNE” (priority 2014, published 2016).
# Tested on: intractable pain
# Conditions: patients with metastatic cancer refractory to opioids; article published May 28, 2015
smiles,measurement,value
"O=C(c1ccccc1)c1ccc2n1CCC2C(=O)O (racemic) [keterolac, (±)-5-benzoyl-2,3-dihydro-1H-pyrrolizine-1-carboxylic acid, compounded with 2-amino-2-(hydroxymethyl)-1,3-propanediol]",analgesic effectiveness in intractable pain,only effective non-opiod analgesic
